Results from patent US20240270821A1, “GIP/GLP1/GCG TRI-RECEPTOR AGONISTS AND USES THEREOF” (priority 2023, published 2024).
Starred links: 1 amine or outer side, 2 acyl side, 3 side chain; linkers in the order of their positions; H or OH if unused. Non-standard residues stand in square brackets, D forms with d. Groups on a side chain read outwards from the residue. No end group written: not given here. *: point of attachment. C18 diacid = O=C(O)CCCCCCCCCCCCCCCCC(=O)*; γGlu = O=C(O)[C@H](CCC(=O)[*:2])N[*:1]; αMe4Pal = C[C@](N)(Cc1ccncc1)C(=O)O; αMeY = C[C@](N)(Cc1ccc(O)cc1)C(=O)O; 4Pal = N[C@@H](Cc1ccncc1)C(=O)O; αMeL = CC(C)C[C@](C)(N)C(=O)O; Orn = NCCC[C@H](N)C(=O)O; AEEA = NCCOCCOCC(=O)O; Aib = CC(C)(N)C(=O)O

Tests used:
Type in all cases: cell-based
hGcgR = hGcgR (Homo sapiens, UniProt P47871); assay: Functional cAMP activation in the presence of 0.1% casein (no HSA); settings: in the presence of 0.1% casein (no HSA); geometric mean; read-out: Relative cAMP EC50, hGcgR;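 further: intracellular cAMP rise after 30 min at 37 °C, read by HTRF against a cAMP standard curve, scaled from buffer only (0%) to maximal control ligand response (100%)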
hGIPR [1] = molecular target: T1, hGIPR (Homo sapiens, UniProt P48546); assay: Functional cAMP activity in the presence of 1% HSA; settings: read-out: cAMP Rel EC50, hGIPR
T1 sequence (P48546 22-466): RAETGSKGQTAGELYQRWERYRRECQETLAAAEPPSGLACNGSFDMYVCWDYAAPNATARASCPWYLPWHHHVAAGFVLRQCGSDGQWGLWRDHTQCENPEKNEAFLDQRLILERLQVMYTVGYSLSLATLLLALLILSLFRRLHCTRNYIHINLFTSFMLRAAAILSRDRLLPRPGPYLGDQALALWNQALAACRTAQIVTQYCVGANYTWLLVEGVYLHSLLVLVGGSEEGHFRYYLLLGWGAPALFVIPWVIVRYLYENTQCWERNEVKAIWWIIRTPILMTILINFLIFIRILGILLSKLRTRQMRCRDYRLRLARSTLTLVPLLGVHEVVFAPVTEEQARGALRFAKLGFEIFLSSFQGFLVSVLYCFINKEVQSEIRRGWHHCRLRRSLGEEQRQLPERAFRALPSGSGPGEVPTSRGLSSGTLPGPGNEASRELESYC

human GcgR = human GcgR (Homo sapiens, UniProt P47871); assay: Functional cAMP activity in the presence of 1% HSA; settings: read-out: cAMP Rel EC50, hGcgR
hGIPR [2] = molecular target: T1, hGIPR; assay: Functional cAMP activation in the presence of 0.1% casein (no HSA); settings: in the presence of 0.1% casein (no HSA); geometric mean; read-out: Relative cAMP EC50, hGIPR;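 on Relative cAMP EC50, hGIPR: intracellular cAMP rise after 30 min at 37 °C read by HTRF against a standard curve, scaled between buffer alone (0%) and top control ligand concentration (100%), four-parameter fit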;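 on Relative cAMP EC50, hGLP-1R: intracellular cAMP rise after 30 min at 37 °C read by HTRF, normalized between buffer only (0%) and maximal control ligand (100%), four-parameter variable-slope fit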
hGLP-1R [3] = molecular target: T2, hGLP-1R (Homo sapiens, UniProt P43220); assay: as above; settings: in the presence of 0.1% casein (no HSA); geometric mean; read-out: Relative cAMP EC50, hGLP-1R;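 further: intracellular cAMP rise after 30 min at 37 °C read by HTRF, normalized between buffer only (0%) and maximal control ligand (100%), four-parameter variable-slope fit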
hGLP-1R [4] = molecular target: T2, hGLP-1R; assay: Functional cAMP activity in the presence of 1% HSA; settings: read-out: cAMP Rel EC50, hGLP-1R

Chain of hGcgR (P47871 26-477): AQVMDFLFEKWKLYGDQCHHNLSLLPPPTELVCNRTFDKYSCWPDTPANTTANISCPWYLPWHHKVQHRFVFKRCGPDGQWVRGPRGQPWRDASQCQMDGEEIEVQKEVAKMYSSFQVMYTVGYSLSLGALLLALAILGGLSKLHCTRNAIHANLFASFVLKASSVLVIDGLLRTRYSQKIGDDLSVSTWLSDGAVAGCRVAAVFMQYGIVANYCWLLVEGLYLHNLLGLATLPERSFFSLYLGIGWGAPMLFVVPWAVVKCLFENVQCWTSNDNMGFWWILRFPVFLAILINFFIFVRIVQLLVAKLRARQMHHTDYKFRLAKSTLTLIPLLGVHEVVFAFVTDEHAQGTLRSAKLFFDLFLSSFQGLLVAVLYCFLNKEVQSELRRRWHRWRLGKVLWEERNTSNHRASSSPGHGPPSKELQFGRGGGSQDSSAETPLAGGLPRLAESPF
Chain of human GcgR (P47871 26-477): as above
T2 sequence (P43220 24-463): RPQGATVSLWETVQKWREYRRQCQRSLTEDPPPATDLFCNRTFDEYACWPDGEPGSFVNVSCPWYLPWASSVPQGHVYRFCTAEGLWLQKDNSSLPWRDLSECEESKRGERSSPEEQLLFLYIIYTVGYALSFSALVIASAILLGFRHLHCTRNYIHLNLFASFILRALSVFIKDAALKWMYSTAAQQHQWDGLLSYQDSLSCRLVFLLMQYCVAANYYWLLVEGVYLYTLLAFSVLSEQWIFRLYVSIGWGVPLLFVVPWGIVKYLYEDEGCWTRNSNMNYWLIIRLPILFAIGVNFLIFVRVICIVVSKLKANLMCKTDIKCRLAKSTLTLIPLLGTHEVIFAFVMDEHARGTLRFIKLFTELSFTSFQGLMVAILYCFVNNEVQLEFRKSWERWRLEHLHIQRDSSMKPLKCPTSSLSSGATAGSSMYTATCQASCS

| Substance | EC50 (hGcgR) [nM] | EC50 (hGIPR [1]) [nM] | EC50 (human GcgR) [nM] | EC50 (hGIPR [2]) [nM] | EC50 (hGLP-1R [3]) [nM] | EC50 (hGLP-1R [4]) [nM] |
| --- | --- | --- | --- | --- | --- | --- |
| Y[Aib]QGTFTSD[4Pal]SQ[αMeL]LDKK([γGlu-γGlu-C18 diacid])AQ[αMe4Pal]AFIE[αMe4Pal]LIE[Aib]GPSSGAPPPSGTE-NH2 [Example 1118] | 6.52 | 5.45 | 802 | 0.128 | 5.42 | 183 |
| Y[Aib]QGTFTSD[4Pal]SQ[αMeL]LD[Orn]K([AEEA-γGlu-C18 diacid])AQ[αMe4Pal]AFIE[αMeY]LLEGGPSSGAPPPSGS-NH2 [Example 932] | 2.67 | 25 | 513 | 0.188 | 1.61 | 249 |
| Y[Aib]QGTFTSD[4Pal]SQ[αMeL]LD[Orn]K([AEEA-γGlu-C18 diacid])AQ[αMe4Pal]QFIE[αMeY]LIE[Aib]GPSSGEPPPSGSEE-NH2 [Example 1098] | 6.2 | 31.2 | 994 | 0.201 | 1.22 | 184 |
| Y[Aib]QGTFTSD[4Pal]SQ[αMeL]LD[Orn]K([AEEA-γGlu-γGlu-C18 diacid])AQ[αMe4Pal]AFIEYLIE[dA]GPSSGAPPPSGS-NH2 [Example 1016] | 5.57 | 30.6 | 626 | 0.218 | 1.55 | 156 |
| Y[Aib]QGTFTSD[4Pal]SQ[αMeL]LD[Orn]K([dE-γGlu-C18 diacid])AQ[αMe4Pal]AFIEYLIA[Aib]GPSSGEPPPSGSEE-NH2 [Example 1101] | 4.72 | 6.31 | 827 | 0.0592 | 1.75 | 246 |
| Y[Aib]QGTFTSD[4Pal]SQ[αMeL]LD[Orn]K([dE-γGlu-C18 diacid])AQ[αMe4Pal]AFIQ[αMeY]LLEGGPSSGAPPPSGSEEE-NH2 [Example 1083] | 15 | 20.5 | 1030 | 0.328 | 7.76 | 547 |
| Y[Aib]QGTFTSD[4Pal]SQ[αMeL]LD[Orn]K([dE-γGlu-C18 diacid])AQ[αMe4Pal]QFIE[αMeY]LIAGGPSSGAPPPSGSEEE-NH2 [Example 1081] | 19.7 | 8.44 | 2130 | 0.105 | 1.29 | 151 |
| Y[Aib]QGTFTSD[4Pal]SQ[αMeL]LD[Orn]K([dE-γGlu-C18 diacid])AQ[αMe4Pal]QFIE[αMeY]LIA[Aib]GPSSGEPPPSGSEE-NH2 [Example 1106] | 7.71 | 4.23 | 1030 | 0.0312 | 0.87 | 119 |
| Y[Aib]QGTFTSD[4Pal]SQ[αMeL]LD[Orn]K([γGlu-γGlu-C18 diacid])AQ[αMe4Pal]AFIEYLIAGGPSSGAPPPSGSEE-NH2 [Example 1031] | 6.98 | 17.3 | 1200 | 0.146 | 1.15 | 152 |
| Y[Aib]QGTFTSD[4Pal]SQ[αMeL]LD[Orn]K([γGlu-γGlu-C18 diacid])AQ[αMe4Pal]AFIEYLIE[Aib]GPSSGAPPPSGS-NH2 [Example 935] | 4.04 | 16.9 | 659 | 0.123 | 1.71 | 172 |
| Y[Aib]QGTFTSD[4Pal]SR[αMeL]LDKK([AEEA-γGlu-C18 diacid])AQ[αMe4Pal]AFIEYLIEGGESSGAPPPSGS-NH2 [Example 792] | 1.91 | 108 | 376 | 0.55 | 2.99 | 619 |
| Y[Aib]QGTFTSD[4Pal]SR[αMeL]LDKK([AEEA-γGlu-C18 diacid])AQ[αMe4Pal]AFIE[αMe4Pal]LIEGGPSSGAPPPSGS-NH2 [Example 950] | 1.92 | 18.1 | 327 | 0.18 | 2.5 | 328 |
| Y[Aib]QGTFTSD[4Pal]SR[αMeL]LDKK([AEEA-γGlu-C18 diacid])AQ[αMe4Pal]AFIE[αMeY]LIEGGPSSGAPPPSGS-NH2 [Example 843] | 3.41 | 32.8 | 367 | 0.334 | 0.874 | 135 |
